According to US20050113318A1, “Combination of dehydroepiandrosterone or dehydroepiandrosterone-sulfate with a beta-agonist bronchodilator for treatment of asthma or chronic obstructive pulmonary disease” (priority 2003, published 2005):
Values joined by “and” are separate entries in the source; they are usually repeats but may differ in a detail not shown here. Identical values can stand only once.

Assays:
Type in all cases: physicochemical
[1] = Solid-state stability with and without lactose (DHEA formed, HPLC)
Source text: These conditions were used to stress the formulation in order to predict its long-term stability results. […] This color change is accompanied by a significant change in the chromatogram as shown in. FIG. 1. The primary degradant is DHEA. […] The materials on accelerated storage become more cohesive with time as evidenced by clumping during sample weighing for chemical analysis. […] This is a considerable disadvantage since lactose is the most commonly used inhalation excipient for dry powder formulations. Continuing with the virtually anhydrous form would mean limiting formulations to neat powder or undertaking more comprehensive safety studies to use a novel excipient.

[2] = Particle size of DHEA-S powders (laser diffraction, light microscope); conditions: for mean particle size: spray dried, two batches
Description: Approximately 1 g sample was passed through the jet mill, once, and approximately 2 g sample were passed through the jet mill twice. […] The resulting solution was sonicated for 3 minutes and appeared fully dispersed. The dispersed solutions were tested on a Malvern Mastersizer X with a small volume sampler (SVS) attachment. One sample of dispersed material was tested 5 times. The median particle size or D (v, 0.5) of unmilled material was 52.56 μm and the % RSD (relative standard deviation) was 7.61 for the 5 values. The D (v, 0.5) for a single pass through the jet mill was 3.90 μm and the % RSD was 1.27, and the D (v, 0.5) from a double pass through the jet mill 3.25 μm and the % RSD was 3.10.
The solution was spray-dried with a B-191 Mini Spray-Drier (Buchi, Flawil, Switzerland) with an inlet temperature of 55° C., outlet temperature of 40° C., at 100% aspirator, at 10% pump, nitrogen flow at 40 mbar and spray flow at 600 units. The spray-dried product was suspended in hexane and Span85 surfactant added to reduce agglomeration. The dispersions were sonicated with cooling for 3-5 minutes for complete dispersion and the dispersed solutions tested on a Malvern Mastersizer X with a Small Volume Sampler (SVS) attachment. […] Visual examination by light microscope of the dispersions of each batch confirmed that spray drying produced small respirable size particles. The mean particle size was 2.4 μm and 2.0 μm for each batch, respectively.
Surface area is determined using five point BET analyses are performed with nitrogen as the adsorbing gas (P/Po=0.05 to 0.30) using a Micromeritics TriStar surface area analyzer. Particle size distributions are measured by laser diffraction using a Micromeritics Saturn Digisizer where the particles are suspended in mineral oil th sodium dioctyl sodium sulfosuccinate as a dispersing agent. Drug substance water content is measured by Karl Fischer titration (Schott Titroline KF). Pure water is used as the standard and all relative standard deviations for triplicates are less than 1%. Powder is added directly to the titration media.

[3] = Respirable dose studies, Andersen cascade impactor; conditions: 90 L/min
Description: The respirable dose (respirable fraction) studies were performed using a standard sampler cascade impactor (Andersen), consisting of an inlet cone (an impactor pre-separator was substituted here), 9 stages, 8 collection plates, and a backup filter within 8 aluminum stages held together by 3 spring clamps and gasket O-ring seals, where each impactor stage contains multiple precision drilled orifices. When air is drawn through the sampler, multiple jets of air in each stage direct any airborne particles toward the surface of the collection plate for that stage. The size of the jets is constant for each stage, but is smaller in each succeeding stage. Whether a particle is impacted on any given stage depends upon its aerodynamic diameter. The range of particle sizes collected on each stage depends upon on the jet velocity of the stage, and the cut-off point of the previous stage. Any particle not collected on the first stage follows the air stream around the edge of the plate to the next stage, where it is either impacted or passed on to the succeeding stage, and so on, until the velocity of the jet is sufficient for impaction. To prevent particle bounce during the cascade impactor test, the individual impactor plates were coated with a hexane-grease (high vacuum) solution (100:1 ratio). As noted above, the particle size cut-off points on the impactor plates changed at different airflow rates. […] The set-up recommended by the United States Phamacopeia for testing dry powder inhalers consists of a mouthpiece adapter (silicone in this case) attached to a glass throat (modified 50 ml round-bottom flask) and a glass distal pharynx (induction port) leading top the pre-separator and Andersen sampler. The pre-separator sample includes washings from the mouthpiece adaptor, glass throat, distal glass pharynx and pre-separator. 5 ml acetonitrile:water (1:1 ratio) solvent was placed in the pre-separator before performing the cascade impactor experiment, that were performed in duplicate with 3 different dry powder inhaler devices and at 3 airflow rates, 30, 60 and 90 L/min. The drug collected on the cascade impactor plates were assayed by the HPLC, and a drug mass balance was performed for each Diskhaler and multi-dose cascade impactor experiment consisting of determining the amount of drug left in the blister, the amount of drug remaining in the device (Diskhaler only), the non-respirable amount of the dose retained on the silicone rubber mouth piece adaptor, glass throat, glass distal pharynx and pre-separator, all combined into one sample, and the respirable dose, i.e. Stage 2 through filter impactor plates for airflow rates of 30 and 60 L/min and Stages 1 through filter impactor plates for 90 L/min experiments.
The cascade impactor experiments were conducted as described in Example 3. Four cascade impactor experiments were done, three with a IDL multi-dose device and one with a Diskhaler, all at 90 L/min. […] However, the % respirable dose was still low. This was likely the result of moisture absorption of the anhydrous form.

[4] = Multi-dose, oven dried drug for 80 minutes
[5] = Multi-dose, oven dried drug for 20 hours

## C[C@]12CC[C@H](OS(=O)(=O)[O-])CC1=CC[C@@H]1[C@@H]2CC[C@]2(C)C(=O)CC[C@@H]12.[Na+] [Anhydrous DHEA-S]
[1]; 50° C., 1 week
  DHEA % formed: 9.817%
[1]; 50° C., 2 weeks
  DHEA % formed: 14.954%
[1]; 50° C., 4 weeks
  DHEA % formed: 20.171%
[1]; Control: neat, sealed vial, 25° C., 1 week
  DHEA % formed: 2.694%
[1]; Control: neat, sealed vial, 25° C., 2 weeks
  DHEA % formed: 2.370%
[1]; Control: neat, sealed vial, 25° C., 4 weeks
  DHEA % formed: 2.666%
[1]; Control: neat, sealed vial, 25° C., first time column (head empty, time 0)
  DHEA % formed: 2.774%
[2]; double pass through the jet mill
  median particle size D (v, 0.5): 3.25 μm
[2]; single pass through the jet mill
  median particle size D (v, 0.5): 3.90 μm
[2]; Malvern Mastersizer X
  mean particle size: 5.07±0.70 μm and 6.66±0.91 μm
[2]; visual examination by light microscope
  mean particle size: 2.4 μm and 2.0 μm
[2]; unmilled material, Malvern Mastersizer X
  median particle size D (v, 0.5): 52.56 μm
[3]
  respirable dose of spray-dried compared to micronized anhydrous DHEA-S: two-fold increase
[3]; [4]
  Blister: 2.8%
  Mass Balance: 100.0%
  Preseparator: 78.7%
  Respirable Dose: 4.6%
[3]; Multi-dose, oven dried drug for 80 minutes, by difference
  Device: 13.9 *^a %
[3]; [5]
  Blister: 5.0%
  Mass Balance: 100.0%
  Preseparator: 55.9%
  Respirable Dose: 1.2%
[3]; Multi-dose, oven dried drug for 20 hours, by difference
  Device: 37.9 *^a %
[3]; jet-milled drug, Diskhaler
  Blister: 6.6% and 10.1%
  Device: 22.1% and 13.3%
  Mass Balance: 104.3% and 86.0%
  Preseparator: 72.7% and 60.2%
  Respirable Dose: 2.9% and 2.4%
[3]; jet-milled drug, Multi-dose
  Blister: 3.8% and 3.9%
  Mass Balance: 100.0%
  Preseparator: 73.3% and 65.8%
  Respirable Dose: 3.6% and 3.8%
[3]; jet-milled drug, Multi-dose, retention obtained by difference
  Device: 19.3 *^a % and 26.5 *^a %
[3]; spray-dried drug, Diskhaler
  Blisters: 29.0%
  Device: 11.2%
  Preseparator: 56.8%
  Respirable Dose: 5.6%
